The values that follow come from ChEMBL document CHEMBL6109042, “Metabologenomics-Driven Discovery of Nocardimicins from a Psychrophilic Nocardia sp. Strain” (J Nat Prod, 2025).

Structures are written as SMILES.

In the assay the test system is HeLa. Put plainly: Cytotoxicity against human HeLa cells. The format is functional, cell-based.
Compound `CCCCCCCCCCCCCCCC(OC(=O)[C@H](CCCCN(O)C=O)NC(=O)[C@H]1N=C(c2ccccc2O)O[C@@H]1C)C(C)C(=O)N[C@@H]1CCCCN(O)C1=O` (stereo partly drawn) yielded a half-maximal inhibitory concentration (IC50) of 16.7 µM.
The value for `CCCCCCCCCCCCCCCCCC(OC(=O)[C@H](CCCCN(O)C=O)NC(=O)[C@H]1N=C(c2ccccc2O)O[C@@H]1C)C(C)C(=O)N[C@@H]1CCCCN(O)C1=O` (stereo partly drawn) was 16.7 µM.
`CCCCCCCCCCCCC/C=C\CCC(OC(=O)[C@H](CCCCN(O)C=O)NC(=O)[C@H]1N=C(c2ccccc2O)O[C@@H]1C)C(C)C(=O)N[C@@H]1CCCCN(O)C1=O` (stereo partly drawn) displayed a half-inhibitory concentration (IC50) of 16.7 µM.
